# Test results: patent publication US8716473B2, “Substituted benzotriazines and quinoxalines as inhibitors of P7OS6 kinase” (Sentinel Oncology Limited, priority 2009, dated 2014)
# Counter-ions that a name gives are not always drawn.
# Biological target: p70S6K (h) (Homo sapiens, UniProt P23443)
# Assay: Determination of p70S6 inhibitory activity (radiometric 33P-ATP filter assay)
# Type: biochemical
# Settings: 40 min at room temperature, read-out: IC50 against P70S6 kinase
# Experimental: The ability of compounds of the invention to inhibit P70S6 kinase was determined using the protocol below.
# • 20 mM MOPS, 1 mM EDTA, 0.01% Brij-35, 5% Glycerol, 0.1% b-mercaptoethanol, 1 mg/mL BSA Method: • p70S6K (h)
# In a final reaction volume of 25 μL, p70S6K (h) (5-10 mU) is incubated with 8 mM MOPS pH 7.0, 0.2 mM EDTA, 100 μM KKRNRTLTV, 10 mM Mg acetate and [γ-33P-ATP] (specific activity approx. 500 cpm/pmol, concentration as required). The reaction is initiated by the addition of the MgATP mix. After incubation for 40 minutes at room temperature, the reaction is stopped by the addition of 5 μL of a 3% phosphoric acid solution. 10 μL of the reaction mixture is then spotted onto a P30 filtermat and washed three times for 5 minutes in 75 mM phosphoric acid and once in methanol prior to drying and scintillation counting.
# p70S6K (h), sequence (P23443 whole entry): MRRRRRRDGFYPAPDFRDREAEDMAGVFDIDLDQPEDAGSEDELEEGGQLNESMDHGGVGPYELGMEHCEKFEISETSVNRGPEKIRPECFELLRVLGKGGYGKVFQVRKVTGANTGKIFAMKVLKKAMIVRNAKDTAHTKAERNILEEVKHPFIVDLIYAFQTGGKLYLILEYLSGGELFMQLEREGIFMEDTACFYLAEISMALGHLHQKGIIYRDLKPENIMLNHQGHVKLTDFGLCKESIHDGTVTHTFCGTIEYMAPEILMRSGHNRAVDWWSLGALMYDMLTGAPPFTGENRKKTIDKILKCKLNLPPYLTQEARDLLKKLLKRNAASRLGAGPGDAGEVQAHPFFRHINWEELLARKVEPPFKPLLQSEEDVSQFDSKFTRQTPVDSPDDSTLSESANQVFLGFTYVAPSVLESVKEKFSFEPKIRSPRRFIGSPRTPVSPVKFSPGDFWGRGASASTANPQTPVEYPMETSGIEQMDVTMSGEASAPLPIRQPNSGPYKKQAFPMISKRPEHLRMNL
row,Compound,IC50 [nM]
1,"Clc1ccccc1CNc1cnc2cc(-c3cn[nH]c3)ccc2n1 [Example 10, (2-Chloro-benzyl)-[6-(1H-pyrazol-4-yl)-quinoxalin-2-yl]-amine]",< 1000
2,"c1cc(CNc2cnc3cc(-c4cn[nH]c4)ccc3n2)ccn1 [Example 14, [6-(1H-Pyrazol-4-yl)-quinoxalin-2-yl]-pyridin-4-ylmethyl-amine hydrochloride]",< 5000
3,"c1cncc(CNc2cnc3cc(-c4cn[nH]c4)ccc3n2)c1 [Example 15, [6-(1H-Pyrazol-4-yl)-quinoxalin-2-yl]-pyridin-3-ylmethyl-amine hydrochloride]",< 1000
4,"c1ccc(CNc2cnc3cc(-c4cn[nH]c4)ccc3n2)nc1 [Example 16, [6-(1H-Pyrazol-4-yl)-quinoxalin-2-yl]-pyridin-2-ylmethyl-amine hydrochloride]",< 5000
5,"COc1ccccc1CNc1cnc2cc(-c3cn[nH]c3)ccc2n1 [Example 19, (2-Methoxy-benzyl)-[6-(1H-pyrazol-4-yl)-quinoxalin-2-yl]-amine]",< 1000
6,"Fc1ccc(CNc2cnc3cc(-c4cn[nH]c4)ccc3n2)cc1C(F)(F)F [Example 20, (4-Fluoro-3-trifluoromethyl-benzyl)-[6-(1H-pyrazol-4-yl)-quinoxalin-2-yl]-amine]",< 1000
7,"CN(Cc1ccccc1)c1cnc2cc(-c3ccncc3)ccc2n1 [Example 22, Benzyl-methyl-(6-pyridin-4-yl-quinoxalin-2-yl)-amine]",< 1000
8,"CN(Cc1ccccc1)c1cnc2cc(-c3ccncn3)ccc2n1 [Example 23, Benzyl-methyl-(6-pyrimidin-4-yl-quinoxalin-2-yl)-amine]",< 1000
9,"C[C@H](Nc1cnc2cc(-c3cn[nH]c3)ccc2n1)c1ccccc1 [Example 24, ((S)-1-Phenyl-ethyl)-[6-(1H-pyrazol-4-yl)-quinoxalin-2-yl]-amine hydrochloride]",< 5000
10,"CN(Cc1ccc(F)c(C(F)(F)F)c1)c1cnc2cc(-c3cn[nH]c3)ccc2n1 [Example 29, (4-Fluoro-3-trifluoromethyl-benzyl)-methyl-[6-(1H-pyrazol-4-yl)-quinoxalin-2-yl]-amine]",< 1000
11,"FC(F)(F)Oc1cccc(CNc2cnc3cc(-c4cn[nH]c4)ccc3n2)c1 [Example 30, [6-(1H-Pyrazol-4-yl)-quinoxalin-2-yl]-(3-trifluoromethoxy-benzyl)-amine]",< 1000
12,"CN(Cc1ccccc1)c1nc2ccc(-c3cn[nH]c3)cc2[n+]([O-])n1 [Example 34, Benzyl-methyl-[1-oxy-7-(1H-pyrazol-4-yl)-benzo[1,2,4]triazin-3-yl]-amine]",< 100
13,"CN(Cc1ccccc1)c1nnc2cc(-c3cn[nH]c3)ccc2n1 [Example 35, Benzyl-methyl-[7-(1H-pyrazol-4-yl)-benzo[1,2,4]triazin-3-yl]-amine]",< 100
14,"COc1cccc(CNc2nc3ccc(-c4cn[nH]c4)cc3[n+]([O-])n2)c1 [Example 36, (3-Methoxy-benzyl)-[1-oxy-7-(1H-pyrazol-4-yl)-benzo[1,2,4]triazin-3-yl]-amine]",< 100
15,"COc1cccc(CNc2nnc3cc(-c4cn[nH]c4)ccc3n2)c1 [Example 37, (3-Methoxy-benzyl)-[7-(1H-pyrazol-4-yl)-benzo[1,2,4]triazin-3-yl]-amine]",< 1000
16,"c1ccc2cc(CNc3cnc4cc(-c5cn[nH]c5)ccc4n3)ccc2c1 [Example 39, Naphthalen-2-ylmethyl-[6-(1H-pyrazol-4-yl)-quinoxalin-2-yl]-amine hydrochloride]",< 1000
17,"FC(F)(F)c1ccc(CNc2cnc3cc(-c4cn[nH]c4)ccc3n2)cc1 [Example 40, [6-(1H-Pyrazol-4-yl)-quinoxalin-2-yl]-(4-trifluoromethyl-benzyl)-amine]",< 1000

row,Compound,IC50 [nM]
1,"CN(Cc1ccccc1)c1cnc2cc(-c3cncnc3)ccc2n1 [Example 43, Benzyl-methyl-(6-pyrimidin-5-yl-quinoxalin-2-yl)-amine]",< 100
2,"Cc1ccc(CNc2cnc3cc(-c4cn[nH]c4)ccc3n2)cc1 [Example 44, (4-Methyl-benzyl)-[6-(1H-pyrazol-4-yl)-quinoxalin-2-yl]-amine]",< 100
3,"CN(Cc1ccccc1Cl)c1cnc2cc(-c3cn[nH]c3)ccc2n1 [Example 45, (2-Chloro-benzyl)-methyl-[6-(1H-pyrazol-4-yl)-quinoxalin-2-yl]-amine hydrochloride]",< 1000
4,"CN1CCN(c2cccc(CN(C)c3cnc4cc(-c5cn[nH]c5)ccc4n3)c2)CC1 [Example 48, Methyl-[3-(4-methyl-piperazin-1-yl)-benzyl]-[6-(1H-pyrazol-4-yl)-quinoxalin-2-yl]-amine]",< 100
5,"C[C@H](c1ccccc1)N(C)c1cnc2cc(-c3cn[nH]c3)ccc2n1 [Example 51, Methyl-((R)-1-phenyl-ethyl)-[6-(1H-pyrazol-4-yl)-quinoxalin-2-yl]-amine]",< 100
6,"COc1cccc([C@@H](C)N(C)c2cnc3cc(-c4cn[nH]c4)ccc3n2)c1 [Example 53, [(R)-1-(3-Methoxy-phenyl)-ethyl]-methyl-[6-(1H-pyrazol-4-yl)-quinoxalin-2-yl]-amine hydrochloride]",< 100
7,"Oc1cccc(CNc2cnc3cc(-c4cn[nH]c4)ccc3n2)c1 [Example 54, 3-{[6-(1H-Pyrazol-4-yl)-quinoxalin-2-ylamino]-methyl}-phenol]",< 100
8,"C[C@@H](Nc1cnc2cc(-c3cn[nH]c3)ccc2n1)c1cccc(Cl)c1 [Example 55, [(R)-1-(3-Chloro-phenyl)-ethyl]-[6-(1H-pyrazol-4-yl)-quinoxalin-2-yl]-amine hydrochloride]",< 100
9,"C[C@@H](c1ccccc1)N(C)c1cnc2cc(-c3cn[nH]c3)ccc2n1 [Example 57, Methyl-((S)-1-phenyl-ethyl)-[6-(1H-pyrazol-4-yl)-quinoxalin-2-yl]-amine]",< 1000
10,"C[C@H](Nc1cnc2cc(-c3cn[nH]c3)ccc2n1)c1cccc(F)c1 [Example 59, [(S)-1-(3-Fluoro-phenyl)-ethyl]-[6-(1H-pyrazol-4-yl)-quinoxalin-2-yl]-amine hydrochloride]",< 5000
11,"C[C@@H](c1cccc(F)c1)N(C)c1cnc2cc(-c3cn[nH]c3)ccc2n1 [Example 60, [(S)-1-(3-Fluoro-phenyl)-ethyl]-methyl-[6-(1H-pyrazol-4-yl)-quinoxalin-2-yl]-amine]",< 1000
12,"[O-][n+]1nc(NCc2ccccc2)nc2ccc(-c3cn[nH]c3)cc21 [Example 61, Benzyl-[1-oxy-7-(1H-pyrazol-4-yl)-benzo[1,2,4]triazin-3-yl]-amine]",< 1000
13,"[O-][n+]1nc(NCc2ccc(Cl)cc2)nc2ccc(-c3cn[nH]c3)cc21 [Example 62, (4-Chloro-benzyl)-[1-oxy-7-(1H-pyrazol-4-yl)-benzo[1,2,4]triazin-3-yl]-amine]",< 1000
14,"[O-][n+]1nc(NCc2cccc(Cl)c2)nc2ccc(-c3cn[nH]c3)cc21 [Example 63, (3-Chloro-benzyl)-[1-oxy-7-(1H-pyrazol-4-yl)-benzo[1,2,4]triazin-3-yl]-amine]",< 1000
15,"c1ccc(CNc2nnc3cc(-c4cn[nH]c4)ccc3n2)cc1 [Example 64, Benzyl-[7-(1H-pyrazol-4-yl)-benzo[1,2,4]triazin-3-yl]-amine]",< 1000
16,"[O-][n+]1cc(NCc2ccccc2)nc2ccc(-c3cn[nH]c3)cc21 [Example 65C, benzyl-[4-oxy-6-(1H-pyrazol-4-yl)-quinoxalin-2-yl]-amine]",< 1000

# Test system: phosphorylation of S6 Ser235/236 in MCF-7 cells
# Assay: Inhibition of P70S6K activity in whole cells: phospho-S6 ELISA in MCF-7 cells
# Type: cell-based
# Settings: Homo sapiens, MCF7, 2 h incubation, 1% FBS
# Experimental: The following assay provides IC50 values for inhibition of P70S6K activity in a whole cell assay by determining effects on the phosphorylation of S6^Ser235/236 in MCF-7 cells by ELISA.
# The following protocol was used: • 1) MCF-7 cells were seeded in 96-well plates at a density of 7×10^3 cells per well and allowed to adhere for 6 h in media containing 10% FBS. • 2) The full serum media was replaced and cells incubated overnight in media containing 1% FBS, prior to addition of test compounds. • 3) Test compounds were prepared from 10 mM or 5 mM (BEZ-235) DMSO stocks to give final concentration ranges as indicated on graphs. DMSO was constant at a final concentration of 1%. • 4) Test compounds were incubated with cells in duplicate for 2 h at 37° C./5% CO2 in a humidified atmosphere. • 5) The media was removed and cells were lysed by freeze-thawing in cell lysis buffer. • 6) Detection of phosphorylated S6Ser235/236 was then carried out using a PathScan ELISA kit (Cell Signaling Technology #7205). • 7) Lysates were diluted 1:1 with sample diluent before being applied to wells coated with an antibody against phosphorylated-S6 protein. • 8) The ELISA was then performed as stated in the manufacturers' instructions. • 9) The raw data were normalised to control values and analysed using a 4-parameter logistic equation in GraphPad Prism.
row,Compound,IC50 [nM]
1,"CN(Cc1ccccc1)c1cnc2cc(-c3cncnc3)ccc2n1 [Example 43, Benzyl-methyl-(6-pyrimidin-5-yl-quinoxalin-2-yl)-amine]",< 20000
2,"C[C@H](c1ccccc1)N(C)c1cnc2cc(-c3cn[nH]c3)ccc2n1 [Example 51, Methyl-((R)-1-phenyl-ethyl)-[6-(1H-pyrazol-4-yl)-quinoxalin-2-yl]-amine]",< 5000
3,"COc1cccc([C@@H](C)N(C)c2cnc3cc(-c4cn[nH]c4)ccc3n2)c1 [Example 53, [(R)-1-(3-Methoxy-phenyl)-ethyl]-methyl-[6-(1H-pyrazol-4-yl)-quinoxalin-2-yl]-amine hydrochloride]",< 1000
4,"Oc1cccc(CNc2cnc3cc(-c4cn[nH]c4)ccc3n2)c1 [Example 54, 3-{[6-(1H-Pyrazol-4-yl)-quinoxalin-2-ylamino]-methyl}-phenol]",< 5000
5,"C[C@@H](Nc1cnc2cc(-c3cn[nH]c3)ccc2n1)c1cccc(Cl)c1 [Example 55, [(R)-1-(3-Chloro-phenyl)-ethyl]-[6-(1H-pyrazol-4-yl)-quinoxalin-2-yl]-amine hydrochloride]",< 1000
6,"C[C@H](c1cccc(Cl)c1)N(C)c1cnc2cc(-c3cn[nH]c3)ccc2n1 [Example 56, [(R)-1-(3-Chloro-phenyl)-ethyl]-methyl-[6-(1H-pyrazol-4-yl)-quinoxalin-2-yl]-amine]",< 5000
7,"Cc1cccc([C@@H](C)Nc2cnc3cc(-c4cn[nH]c4)ccc3n2)c1 [Example 58, [6-(1H-Pyrazol-4-yl)-quinoxalin-2-yl]-((R)-1-m-tolyl-ethyl)-amine hydrochloride]",< 1000
8,"C[C@H](Nc1cnc2cc(-c3cn[nH]c3)ccc2n1)c1cccc(F)c1 [Example 59, [(S)-1-(3-Fluoro-phenyl)-ethyl]-[6-(1H-pyrazol-4-yl)-quinoxalin-2-yl]-amine hydrochloride]",< 20000
9,"C[C@@H](c1cccc(F)c1)N(C)c1cnc2cc(-c3cn[nH]c3)ccc2n1 [Example 60, [(S)-1-(3-Fluoro-phenyl)-ethyl]-methyl-[6-(1H-pyrazol-4-yl)-quinoxalin-2-yl]-amine]",< 20000
